# According to patent US8871751B2, “Compositions and methods relating to nuclear hormone and steroid hormone receptors including inhibitors of estrogen receptor alpha-mediated gene expression and inhibition of breast cancer” (The Board of Trustees of the University of Illinois, priority 2008, dated 2014):
# “Also recorded” adds a separate entry of the source.
# Experiments:
# [1] = biological target: T1, human PR-B binding to flPRE (Homo sapiens, UniProt P06401); assay: FAMA: inhibition of PR binding to flcPRE; details: binding to HRE, 5 concentrations 0.5-10 μM, sequential method
# T1 construct: FLAG; made in house
# T1 sequence (P06401 1-933): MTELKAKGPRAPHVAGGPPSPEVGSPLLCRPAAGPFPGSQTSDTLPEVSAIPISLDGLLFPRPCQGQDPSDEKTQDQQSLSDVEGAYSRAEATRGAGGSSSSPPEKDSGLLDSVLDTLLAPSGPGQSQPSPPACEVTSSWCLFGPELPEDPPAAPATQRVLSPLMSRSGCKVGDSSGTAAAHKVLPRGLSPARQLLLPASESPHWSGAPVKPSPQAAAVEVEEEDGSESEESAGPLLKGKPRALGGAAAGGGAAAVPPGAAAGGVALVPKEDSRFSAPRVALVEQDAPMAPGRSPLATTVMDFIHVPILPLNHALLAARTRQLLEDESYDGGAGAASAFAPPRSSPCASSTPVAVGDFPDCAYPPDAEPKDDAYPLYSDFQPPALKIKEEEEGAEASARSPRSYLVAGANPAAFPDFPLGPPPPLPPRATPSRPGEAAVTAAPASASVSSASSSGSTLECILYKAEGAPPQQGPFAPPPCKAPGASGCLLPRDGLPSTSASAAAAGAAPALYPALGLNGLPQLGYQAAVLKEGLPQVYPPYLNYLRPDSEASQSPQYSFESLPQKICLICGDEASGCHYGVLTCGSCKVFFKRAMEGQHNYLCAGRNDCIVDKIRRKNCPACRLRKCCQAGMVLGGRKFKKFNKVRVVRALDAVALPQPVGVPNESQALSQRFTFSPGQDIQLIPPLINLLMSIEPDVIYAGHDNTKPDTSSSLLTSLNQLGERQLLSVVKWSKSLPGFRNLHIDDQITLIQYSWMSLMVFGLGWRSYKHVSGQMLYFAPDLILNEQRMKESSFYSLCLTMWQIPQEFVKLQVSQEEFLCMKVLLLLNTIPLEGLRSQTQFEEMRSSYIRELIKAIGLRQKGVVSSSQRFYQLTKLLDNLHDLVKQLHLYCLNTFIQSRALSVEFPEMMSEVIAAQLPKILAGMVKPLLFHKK
# Protocol: Dose response curves for selected compounds were carried out as described for the HTS screen except that each well contained the indicated concentration of test compound. PR assays were carried out in the same buffer used for ERα assays and contained 1 nM flcPRE and 11 nM PR-B and 100 nM progesterone. The buffer used for AR was similar but also contained 5 μM ZnCl, 5 mM NaF, 0.6 μM CHAPS and 100 nM dihydrotestosterone. AR assays contained 1 nM flcARE and 50 nM full-length wild-type AR.
# Specificity was evaluated in dose-response studies by quantitative FAMA using purified full-length human PR binding to a fluorescein-labeled progesterone/glucocorticoid response element (flPRE) and full-length human androgen receptor (AR) binding to a fluorescein-labeled androgen response element (flARE).
# [2] = test system: ERα negative MDA-MB-231 cells; assay: MDA-MB-231 cell growth / toxicity assay (MTS); type: cell-based, human; details: for effect on growth of MDA-MB-231 cells (toxicity): up to 30 μM, Example 1 assays (1 day / 5 days); for effect on growth of ER negative MDA-MB-231 cells: all concentrations
# Protocol: ERα negative MDA-MB-231 human breast cancer cells were used to test for generalized toxicity of the test compounds. To parallel the reporter gene assays in stably transfected T47D breast cancer cells, 5,000 MDA-MB-231 cells per well were plated in a 96 well plate. The cells were maintained in the medium described above for the T47D cells. One day after plating, the same concentration of test compound used in the reporter gene assay (up to 30 μM) was added. After 24 h the MTS assay was carried out as described above. A more stringent toxicity assay parallels the assay for inhibition of estrogen-dependent growth of BG-1 cells. 250 MDA-MB-231 cells were plated per well and maintained and assayed as described for the BG-1 cells. Several compounds without detectable toxicity in the 24-h assay inhibited MDA-MB-231 cell growth in the 5-6 day assay.
# Assays for Cell Growth and Viability. Cells were maintained in the media listed above containing CD-treated serum for at least 4 days prior to the experiment. To minimize cell aggregation, MCF-7 cells were harvested in 10 mM Hepes, pH 7.4, 1 mM EDTA. Other cell lines were harvested in trypsin-EDTA. 1,000 cells were plated into each well of a 96 well plate. For slow growing ZR-75 cells, 2,000 cells were plated/well. The cells were maintained in medium containing CD-treated serum for 24 hours. At 24 hours the medium was changed and E2 and DMSO vehicle or TPSF in DMSO was added. The medium was replaced after 2 days (except for BT474 cells whose medium was not changed). After 4 days viable cells were determined using a cell viability test, Promega CellTiter 96 Aqueous One Solution Cell Proliferation Assay (MTS) (Promega, Wis.).
# PR = biological target: T2, PR (Homo sapiens, UniProt P06401); assay: PR transactivation, MMTV-luciferase reporter in T47D cells; type: cell-based
# T2 construct: endogenous in cells; host or cells: T47D (stably transfected with GR and MMTV-luciferase)
# T2 sequence (P06401 1-933): T1 sequence (P06401 1-933)
# Protocol: The T47D-KBluc cells stably express an (ERE)3-luciferase reporter gene (38). Cells were maintained in phenol red-free RPMI 1640 with 2 mM L-glutamine, 1.5 g/l sodium bicarbonate, 4.5 g/l glucose, 10 mM Hepes, pH 7.5, 1 mM sodium pyruvate, 10% FBS (Atlanta Biological, Atlanta, Ga.) and antibiotics. Four days before E2 induction, the cells were switched to the above medium, with 10% 2× charcoal-dextran-treated calf serum instead of FBS. 200,000 cells/well were transferred to each well of a 24-well plate. After 24 h the indicated concentrations of the test compounds were added in DMSO and E2 was added to 20 pM. After 24 h cells were washed once in PBS, and 150 μl 1× Passive Lysis Buffer (Promega, Madison Wis.) was used to lyse the cells. Luciferase activity was determined using firefly luciferase reagents from Promega (Madison, Wis.). T47D cells stably transfected to express GR and a mouse mammary tumor virus luciferase reporter that responds to liganded GR and PR were maintained and assayed in medium containing 5 nM progesterone for PR assays, or 2.5 nM dexamethsaone for GR assays, essentially as described (39).
compound,measurement,setting,value
CN1CCC(C#N)c2ccccc21 (stereo not drawn) [Compound 1529],IC50,[1],7.5 µM
same,reduction of growth of MDA-MB-231 cells,"[2]; 30 μM, 5 days",50-60%
same,effect on growth of MDA-MB-231 cells,"[2]; 1-20 μM, 5 days",unaffected
"CCCSc1nc2c([nH]1)c(=O)n(C)c(=S)n2C [Compound 95869, 1,3-Dimethyl-8-propylsulfanyl-2-thioxo-1,2,3,7-tetrahydro-purin-6-one]",PR at 30 μM,PR,0
"Cn1c(=O)c2[nH]c(SC3CCCCC3)nc2n(C)c1=S [Compound 95899, 8-Cyclohexylsulfanyl-1,3-dimethyl-2-thioxo-1,2,3,7-tetrahydro-purin-6-one]",PR at 30 μM,PR,42
"Cn1c(=O)c2nc(CSCc3ccccc3)[nH]c2n(C)c1=O [Compound 95910, 8-Benzylsulfanylmethyl-1,3-dimethyl-3,7-dihydro-purine-2,6-dione]",IC50,[1],9.5 µM
same,effect on PR transactivation,"PR; 5 nM progesterone, up to 30 μM",did not significantly inhibit
same,effect on growth of MDA-MB-231 cells (toxicity),[2],No toxicity
same,effect on growth of MDA-MB-231 cells (toxicity),[2]; listed as TPBM,had no effect; also recorded: no inhibition
"Cn1c(=O)c2[nH]c(C3CC4CCC3C4)nc2n(C)c1=O (stereo not drawn) [Compound 101807, 8-Bicyclo[2.2.1]hept-2-yl-1,3-dimethyl-3,7-dihydro-purine-2,6-dione]",PR at 30 μM,PR,71
CN(C)CCCn1c2c3ccccc3ccc2c2oc(=O)c3ccccc3c21 [Compound 638432],IC50,[1],7.4 µM
"Cn1c(=S)c2[nH]c(SCCCC(=O)c3ccc(F)cc3)nc2n(C)c1=O [TPSF, Butyrophenone, p-fluoro-4-(1,2,3,6,-tetrahydro-1,3-dimethyl-2-oxo-6-thionopurin-8-ylthio)]",IC50,"[2]; Homo sapiens, MDA-MB-231, 96 h, 4 days, MTS, read-out: IC50 for inhibition of MDA-MB-231 (ER Neg. cells) cell growth",> 30 µM
same,inhibition of growth of MDA-MB-231 cells,"[2]; all concentrations tested, including 30 μM, 4 days",0%
same,effect on growth of ER negative MDA-MB-231 cells,"[2]; including 30 μM, 4 days",did not inhibit growth; also recorded: lacks toxicity
same,effect on growth of ER negative MDA-MB-231 cells,"[2]; including 30 μM, 4 days, listed as 97998/TPSF",did not inhibit growth; also recorded: does not inhibit growth
